From US12351574B2, “Selective ligands for modulation of GIRK channels” (Northeastern University, priority 2018, dated 2025)

Target: T1, GIRK1-S65A with GIRK4 (Homo sapiens, UniProt P48544+P48549, S65A)
T1 construct: expressed in transfected cells; host or cells: HEK293-T cells
T1 sequence (P48549 1-501 S65A): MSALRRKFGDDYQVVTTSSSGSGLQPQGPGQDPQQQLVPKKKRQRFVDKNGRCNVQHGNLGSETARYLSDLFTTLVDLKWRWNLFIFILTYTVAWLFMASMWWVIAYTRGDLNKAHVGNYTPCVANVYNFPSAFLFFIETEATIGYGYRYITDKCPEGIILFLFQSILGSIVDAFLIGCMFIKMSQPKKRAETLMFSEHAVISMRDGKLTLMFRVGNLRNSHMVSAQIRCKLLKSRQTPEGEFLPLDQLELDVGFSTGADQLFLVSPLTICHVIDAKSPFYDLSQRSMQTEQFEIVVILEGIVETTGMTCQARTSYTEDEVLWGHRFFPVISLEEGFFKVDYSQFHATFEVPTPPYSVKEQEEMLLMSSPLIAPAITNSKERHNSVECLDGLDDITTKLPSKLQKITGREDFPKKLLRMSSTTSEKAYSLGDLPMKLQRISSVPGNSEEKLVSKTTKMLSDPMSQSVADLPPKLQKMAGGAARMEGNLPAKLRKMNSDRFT
T1 sequence (P48544 1-419): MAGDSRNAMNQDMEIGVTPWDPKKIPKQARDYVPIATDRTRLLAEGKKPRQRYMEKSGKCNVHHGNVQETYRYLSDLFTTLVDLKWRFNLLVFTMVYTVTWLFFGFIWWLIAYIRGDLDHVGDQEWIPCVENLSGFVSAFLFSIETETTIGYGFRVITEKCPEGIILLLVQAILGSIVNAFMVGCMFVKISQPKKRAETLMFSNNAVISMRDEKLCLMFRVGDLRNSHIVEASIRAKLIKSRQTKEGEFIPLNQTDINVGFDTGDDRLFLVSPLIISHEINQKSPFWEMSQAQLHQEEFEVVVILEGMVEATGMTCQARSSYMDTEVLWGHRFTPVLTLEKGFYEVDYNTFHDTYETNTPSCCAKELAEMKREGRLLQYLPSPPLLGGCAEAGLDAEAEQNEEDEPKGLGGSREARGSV
Test: 5-ptaseOCRL current inhibition, GIRK1/4 channels containing GIRK1-S65A subunits
Type: cell-based
Source text: To identify changes in specific channel residue interactions with PIP2 upon ligand binding, the inventors carried out Principal Component Analysis (PCA) in the presence and absence of ML297 and GAT1508. The PCA analysis implicated changes in the slide (or interfacial) helix interactions with PIP2 upon ligand binding. Polar interactions could be formed between GIRK2^FD(Y76) and GIRK4^FD(Y71) with the P(4,5) of PIP2 when ML297 was bound to the same subunit (FIG. 39 top, FIG. 40). In contrast, when GAT1508 was bound this interaction was retained by GIRK2^FD but not GIRK4^FD (FIG. 39 bottom, FIG. 40). The corresponding GIRK1(S65) residue (FIG. 41, highlighted with vertical rectangle) could be serving the same role in stabilizing the phosphoinositol headgroup for interactions with non-ligand binding subunits. As polar residues, both Ser and Tyr could form H-bond interactions with PIP2. […]
Patch-clamp recording: Whole-cell currents were recorded with an Axopatch 200B amplifier (Molecular Devices) controlled via a USB-interface (National Instruments) using WinWCP software (University of Strathclyde). […] The barium-sensitive component of the current, observed when cells were perfused with the high-K^+ buffer, was analyzed and was determined by perfusing 5 mM BaCl2 in the high-K^+ buffer at the end of each experiment. […]

Row | Compound | protection of current from 5-ptaseOCRL (in words)
1 | Cc1cc(NC(=O)Nc2ccc(Br)s2)n(-c2ccccc2)n1 [GAT1508, 1-(5-bromothiophen-2-yl)-3-(3-methyl-1-phenyl-1H-pyrazol-5-yl)urea] | not protected
2 | Cc1cc(NC(=O)Nc2ccc(F)c(F)c2)n(-c2ccccc2)n1 [ML297, reference compound] | not protected
